From PMC10319809, “Chronic UCN2 treatment desensitizes CRHR2 and improves insulin sensitivity” (Nature Communications, 2023)
Where “and” joins values, the source holds several entries; their conditions need not be identical. Equal values may be shown once. One block for each molecule: values may come before it. Where no end group is shown, it is not given here.

Legend:
[1] = test system: soleus muscle; assay: Antisauvagine-30 pre-treatment, [3H]2DG uptake in soleus muscle; type: in vivo, mouse; conditions: ASG30 300 ug/kg IP pre-treatment, UCN2 1 mg/kg, insulin 0.75 IU/kg
Method: To determine 2-deoxy-glucose (2DG) uptake in soleus muscle, mice were fasted for 5 h and anaesthetized with isoflurane. Animals were injected IP with 300 ug/kg of ASG30 or an equivalent volume of water. […] 15 min following 2DG administration, blood was collected via intracardiac stick and soleus and gastrocnemius muscles were dissected and snap frozen in liquid nitrogen. Samples were stored at −80 C until processing. Blood was treated with BaOH2 and ZnSO4 and after centrifugation, radioactivity was determined via liquid scintillation counting (Tri-Carb 5110TR, PerkinElmer, Waltham, MA). Tissue was homogenized and mixed with water or BaOH2 and ZnSO4 to determine total and unphosphorylated 2DG content.
(§1) Blood Glucose (mg/dL) +Veh +Veh
(§2) Supplementary Fig. 1. Antisauvagine-30 Blunts Effects of UCN2 on Glucose Uptake.
(§3) (A) Blood glucose during oGTT. Oral glucose gavage occurred at t = 0. At t = -30 animals were
(§4) treated with either Antisauvagine-30 (ASG30) or water. At t = -20 animals were treated with
(§5) either Saline, UCN2 alone, ASG30 alone, or ASG30 and UCN2 together. Mean±SD, n = 6.
(§6) Significance was assessed by one-way ANOVA and Tukey HSD.
(§7) (B) [3H]2-Deoxyglucose uptake by the soleus muscle in insulin-treated or untreated mice, following
(§8) pre-treatment of saline, UCN2, or ASG30 and UCN2. Mean±SD, n = 6.
(§9) Significance was assessed by one-way ANOVA and Tukey HSD. * P < 0.05, ** P < 0.01, *** P < […]

[2] = test system: mice; assay: Antisauvagine-30 pre-treatment, oGTT with UCN2; type: in vivo, mouse
Method: For glucose tolerance tests (GTTs), animals were fasted for 8 h with ad libitum access to water. Fasting glucose measurements were taken before 300ug/kg IP dose of ASG30 (Tocris Biosciences, Bristol, UK, Catalog No: 2071) or an equivalent volume of sterile distilled water. 10 min later animals received a 1 mg/kg IP dose of UCN2 or an equivalent volume of saline co-dosed with 300ug/kg of ASG30 or an equivalent volume of water. 20 min later animals received a […] oral glucose dose. Blood glucose measurements were taken via tail nick using the AlphaTRAK 2 Glucose Monitoring System (Zoetis, Parsippany-Troy Hills, NJ) at 10, 30, 60, and 120 min after dose.
as §1, §2, §3, §4, §5, §6, §7, §8, §9

[3] = test system: CRHR2-expressing HEK293 cells; assay: FAM-UCN2 internalization, fluorescence and live cell imaging of HEK293 cells; type: cell-based, human; conditions: HEK293 cells with or without CRHR2, over 24 h
[4] = test system: mouse soleus muscle; assay: Ex vivo soleus muscle [3H]2-deoxyglucose uptake; conditions: individual muscles
Method: Soleus muscle was removed from fed animals anesthetized by an intraperitoneal injection of pentobarbital (10 mg/100 g body weight). Dissected soleus muscles were suspended at 5 mN of tension in incubation chambers (Model 610/820 M, Danish Myo-Technology, Denmark) containing Krebs-Ringer-Buffer supplemented with 0.1% BSA, 2 mM pyruvate and 8 mM Mannitol. During the entire incubation period the KRB was maintained at 30 °C and oxygenated with 95% O2 and 5% CO2. Following 10 min of pre-incubation muscles were incubated in Krebs buffer +/− 100 nM (−7.0 log[M]) UCN2. At the next time point, 30 min later, muscles were placed in baths containing Krebs buffer +/− 100 nM (−7.0 [M]) UCN2. At the next time point, 15 min later, muscles were placed in baths containing Krebs buffer +/− 100 nM (−7.0 log[M]) UCN2 + /− 60 nM Insulin (Actrapid, Novo Nordisk, Bagsvaerd, Denmark) for 15 min. For the ex vivo glucose uptake studies, 1 mM [^3H]2-deoxyglucose (Perkin-Elmer) and 7 mM [^14C]mannitol (Perkin-Elmer) was also added at this time. Muscles that were in saline in the first bath, saline in the second bath, and saline in the third bath were assigned to the SSS group. Muscles that were in saline in the first bath, saline in the second bath, and UCN2 in the third bath were assigned to the SSU group. Muscles that were in UCN2 in the first bath, saline in the second bath, and UCN2 in the third bath were assigned to the USU group. Muscles that were in saline in the first bath, UCN2 in the second bath, and UCN2 in the third bath were assigned to the SUU group. Following incubation, muscles were harvested, washed in ice-cold KRB and immediately frozen in liquid nitrogen.
Glucose uptake was determined in muscle protein lysates by assessing the accumulation of [^3H]2-deoxyglucose with the use of [^14C]mannitol to correct for the extracellular space. Radioactivity was measured by liquid scintillation counting.

[5] = biological target: T1, unmodified CRHR2a (corticotropin-releasing hormone receptor 2, alpha isoform) (human) (UniProt Q13324)
T1 sequence: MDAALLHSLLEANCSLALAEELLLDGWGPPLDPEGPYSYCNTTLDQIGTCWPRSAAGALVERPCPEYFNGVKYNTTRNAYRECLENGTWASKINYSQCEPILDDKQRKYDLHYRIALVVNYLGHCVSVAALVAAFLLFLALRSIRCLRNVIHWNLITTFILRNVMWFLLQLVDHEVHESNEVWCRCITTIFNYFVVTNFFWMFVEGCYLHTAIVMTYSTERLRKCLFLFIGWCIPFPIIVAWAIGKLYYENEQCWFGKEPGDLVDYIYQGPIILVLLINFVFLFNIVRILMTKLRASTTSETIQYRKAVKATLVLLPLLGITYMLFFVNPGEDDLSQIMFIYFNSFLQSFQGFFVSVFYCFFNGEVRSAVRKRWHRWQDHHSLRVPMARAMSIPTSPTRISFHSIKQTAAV

Molecule: Antisauvagine-30 [ASG30]
insulin-mediated glucose uptake in soleus muscle in vivo [1]: restored insulin-mediated glucose uptake
glucose tolerance in UCN2-treated animals during oGTT ([2]; ASG30 300ug/kg IP pre-treatment): improved glucose tolerance
effect on UCN2-induced blood glucose ([2]; ASG30 300ug/kg IP pre-treatment and co-dose with 1 mg/kg UCN2): significantly blunted UCN2’s effects on blood glucose

Molecule: FAM-UCN2: Fluorescently labeled UCN2 (IVLSLDVPIGLLQILLEQARARAAREQATTNARILARVGHC; ends and bridges not checked; also: FAM label, position not given here)
internalization of the labeled ligand [3]: internalized in a receptor-dependent manner

Molecule: Insulin
2DG Uptake ([4]; Fig 6C, Vehicle +Insulin): 2.36 µmol/g/h and 3.79 µmol/g/h and 4.38 µmol/g/h and 3.22 µmol/g/h and 3.39 µmol/g/h
2DG Uptake ([4]; Fig 6D, Insulin-SSS): 3.619 µmol/g/h and 3.768 µmol/g/h and 3.935 µmol/g/h

Gs activation, ebBRET biosensor (Gas-RlucII leaving the plasma membrane), HEK293 cells with increasing UCN2; EC50 of UCN2 [5]: 0.1 nM
β-Arrestin 1 recruitment, ebBRET effector membrane translocation assay, HEK293 cells with increasing UCN2; EC50 of UCN2 [5]: 6.5 nM
β-Arrestin 2 recruitment, ebBRET effector membrane translocation assay, HEK293 cells with increasing UCN2; EC50 of UCN2 [5]: 6.1 nM
B1: Urocortin 2 (UCN2) (ligand)
chain: IVLSLDVPIGLLQILLEQARARAAREQATTNARILARVGHC
